Assay results reported in US7544814B2, “[3.2.0] Heterocyclic compounds and methods of using the same” (Nereus Pharmaceuticals, Inc., priority 2004, dated 2009).

Key:
[1] = target: T1, chymotrypsin-like activity of 20S proteasomes in PC-3 cells (Homo sapiens, UniProt P28074); test: Chymotrypsin-like activity of 20S proteasomes in lysates of treated PC-3 cells; assay type: cell-based; conditions: PC-3, read-out: % inhibition of the chymotrypsin-like activity of 20S proteasomes in PC-3 cell lysates; 100 nM; 1 hr incubation
T1 construct: endogenous in cells; host or cells: PC-3 (ATCC CRL-1435)
Experimental: PC-3 (ATCC, CRL-1435), the human prostate cancer cell line, was cultured in F12K medium supplemented with 2 mM L-glutamine, 100 units/ml penicillin, 100 μg/ml streptomycin and 10% heat inactivated fetal bovine serum at 37° C., 5% CO2 and 95% humidified air. […] DMSO was used as the vehicle control at a final concentration of 0.1%. Following 1 hr incubation of PC-3 cells with the compounds, the cells were washed 3× with ice-cold 1× Dulbecco's Phosphate-Buffered Saline (DPBS, Mediatech, Herndon, Va.). […] Cell debris was pelleted by centrifugation at 14,000 rpm for 10 min, 4° C. and supernatants (=cell lysates) were transferred to a new tube. Protein concentration was determined by the BCA protein assay kit (Pierce Biotechnology, Rockford, Ill.). […] The released coumarin (AMC) was measured fluorometrically by using λex=390 nm and λem=460 nm. The assay was performed in a microtiter plate (Corning 3904) and followed kinetically with measurements every five minutes for 2 hr. The total amount of protein used for each assay was 20 μg. The final concentration of Suc-LLVY-AMC and DMSO was 20 μM and 0.2%, respectively. Results are presented as the percent inhibition of the 20S proteasome chymotrypsin-like activity relative to the DMSO control.

NCI-H292 = test: Cell growth inhibition (resazurin), NCI-H292; conditions: from EC50 values
HT-29 = test: Cell growth inhibition (resazurin), HT-29; conditions: from EC50 values

Compound | inhibition at 0.1 µM [1] [%] | cytotoxicity against NCI-H292, in words (NCI-H292) | cytotoxicity against HT-29, in words (HT-29)
C[C@H]1C(=O)N[C@@]2(C(O)[C@@H]3C=CCCC3)C(=O)O[C@@]12C (single isomer, unassigned) [Formula II-20] | 57 | – | –
C[C@@]12OC(=O)[C@]1([C@@H](O)[C@@H]1C=CCCC1)NC(=O)[C@@H]2CCBr [Formula II-18] | – | cytotoxic | cytotoxic
